Earlier results in article PMC12030253, “New Temporin A Analogues Modified in Positions 1 and 10—Synthesis and Biological Studies” (Pharmaceutics, 2025).
Where two headings read alike, the source gives them in different places. Ends that are not written are not given here.

Assays:
Parameters in all cases: method as in PMID 38931840
[1] = test system: MDA-MB-231 cells; details: cited from earlier work
[2] = test system: Candida albicans NBIMCC 74; details: broth dilution, 0-320 µg/mL, 24 h; cited from earlier work
[3] = test system: Bacillus subtilis NBIMCC 3562; details: broth dilution, 0-320 µg/mL, 24 h; cited from earlier work
[4] = test system: BALB 3T3 cells; details: cited from earlier work; for CC50: BALB 3T3 cells, NRU
[5] = test system: Pseudomonas aeruginosa NBIMCC 3700; details: broth dilution, 0-320 µg/mL, 24 h; cited from earlier work
[6] = test system: MCF-12F cells; details: MTT, 72 h, non-tumorigenic cells; read-out: Mean IC50 ± SD MCF-12F; cited from earlier work
[7] = test system: Bacillus subtilis NBIMCC 3562; details: cited from earlier work; for Percentage-based inhibition compared to antibiotic, B. subtilis 3562: chloramphenicol taken as 100%; for Inhibition zone B. subtilis 3562: 20 µL per disk
[8] = test system: Arthrobacter oxydans NBIMCC 9333; details: broth dilution, 0-320 µg/mL, 24 h; cited from earlier work
[9] = test system: Escherichia coli NBIMCC 8785; details: broth dilution, 0-320 µg/mL, 24 h; cited from earlier work
[10] = test system: Arthrobacter oxydans NBIMCC 9333; details: cited from earlier work; for Percentage-based inhibition compared to antibiotic, A. oxydans 9333: gentamicin taken as 100%; for Inhibition zone A. oxydans 9333: 20 µL per disk
[11] = test system: Pseudomonas aeruginosa NBIMCC 3700; details: cited from earlier work; for Percentage-based inhibition compared to antibiotic, P. aeruginosa 3700: gentamicin taken as 100%; for Inhibition zone P. aeruginosa 3700: 20 µL per disk
[12] = test system: MCF-7 cells; details: cited from earlier work
[13] = test system: Escherichia coli NBIMCC 8785; details: 20 µL per disk, cited from earlier work

FLPLIGRVL-S-GILNH2 (FLPLIGRVLSGIL-NH2) [DTA, parent peptide Temporin A, C-terminal amide]
IC50 ([1]; MTT, 72 h, read-out: Mean IC50 ± SD MDA-MB-231): 115 ± 4.04 µM
Selectivity Index (SI) MDA-MB-231 ([1]; SI = IC50 (MCF-12F)/IC50 (MDA-MB-231)): 1.20
MIC C. albicans 74 [2]: 320 µg/mL
MIC B. subtilis 3562 [3]: 80 µg/mL
CC50 ([4]; irradiated 2.4 J/cm^2, read-out: Mean CC50 ± SD +Irr): 105 ± 4.88 µM
CC50 ([4]; without irradiation, read-out: Mean CC50 ± SD −Irr): 106 ± 4.18 µM
PIF (Photo-Irritation Factor) ([4]; PIF < 2 not phototoxic): 1.01
MIC P. aeruginosa 3700 [5]: 320 µg/mL
IC50 [6]: 139 ± 8.36 µM
Percentage-based inhibition compared to antibiotic, B. subtilis 3562 ([7]; 1.4 mg/mL): 33.8%
Percentage-based inhibition compared to antibiotic, B. subtilis 3562 ([7]; 10 mg/mL): 33.8%
Inhibition zone B. subtilis 3562 ([7]; peptide 1.4 mg/mL): 8.8 ± 0.3 mm
Inhibition zone B. subtilis 3562 ([7]; peptide 10 mg/mL): 8.8 ± 0.8 mm
MIC A. oxydans 9333 [8]: 80 µg/mL
MIC E. coli 8785 [9]: 320 µg/mL
Percentage-based inhibition compared to antibiotic, A. oxydans 9333 ([10]; 1.4 mg/mL): 37.8%
Percentage-based inhibition compared to antibiotic, A. oxydans 9333 ([10]; 10 mg/mL): 53.9%
Inhibition zone A. oxydans 9333 ([10]; peptide 1.4 mg/mL): 6.8 ± 0.3 mm
Inhibition zone A. oxydans 9333 ([10]; peptide 10 mg/mL): 9.7 ± 0.6 mm
Percentage-based inhibition compared to antibiotic, P. aeruginosa 3700 ([11]; 1.4 mg/mL): 45.9%
Percentage-based inhibition compared to antibiotic, P. aeruginosa 3700 ([11]; 10 mg/mL): 54.7%
Inhibition zone P. aeruginosa 3700 ([11]; peptide 1.4 mg/mL): 7.8 ± 0.3 mm
Inhibition zone P. aeruginosa 3700 ([11]; peptide 10 mg/mL): 9.3 ± 0.6 mm
IC50 ([12]; MTT, 72 h, read-out: Mean IC50 ± SD MCF-7): 73.2 ± 3.36 µM
Selectivity Index (SI) MCF-7 ([12]; SI = IC50 (MCF-12F)/IC50 (MCF-7)): 1.90
Inhibition zone E. coli 8785 ([13]; peptide 1.4 mg/mL): 0 mm
Inhibition zone E. coli 8785 ([13]; peptide 10 mg/mL): 0 mm
